Results on 19 compounds are retold here after patent US8252793B2, “Bradykinin receptor agonists and uses thereof to treat ocular hypertension and glaucoma” (Alcon Research, Ltd., priority 2010, dated 2012).

For assay [1], the target named is T1, recombinant human bradykinin B2 receptor (Homo sapiens, UniProt P30411).
T1 construct: expressed in transfected cells; host or cells: Chinese hamster ovary (CHO) cells, membrane homogenates
T1 sequence (P30411 1-391): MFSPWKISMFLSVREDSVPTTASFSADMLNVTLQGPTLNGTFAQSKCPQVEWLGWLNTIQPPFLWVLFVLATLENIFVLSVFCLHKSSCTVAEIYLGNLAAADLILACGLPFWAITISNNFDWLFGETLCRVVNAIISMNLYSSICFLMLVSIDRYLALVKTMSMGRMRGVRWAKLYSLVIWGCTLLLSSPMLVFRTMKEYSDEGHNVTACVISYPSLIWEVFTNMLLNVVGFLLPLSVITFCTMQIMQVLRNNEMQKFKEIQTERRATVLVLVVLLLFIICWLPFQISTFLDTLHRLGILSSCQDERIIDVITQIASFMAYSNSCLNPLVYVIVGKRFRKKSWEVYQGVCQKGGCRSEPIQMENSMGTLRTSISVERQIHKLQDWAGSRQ
Kind of assay: [3H]-BK competition radioligand binding to human cloned B2 receptor (CHO cell membranes). Conditions: 0.2 nM [3H]-bradykinin, CHO membranes, 60 min 23° C.; mean ± SEM or single value; Ki from IC50 by Cheng-Prusoff; read-out: [3H]-BK Binding to Human Cloned B2 Receptor (Ki). How it is done: Chinese hamster ovary (CHO) cell membrane homogenates (2.5 μg protein) expressing the recombinant human bradykinin B2 receptor were incubated for 60 min at 23° C. with 0.2 nM [^3H]-bradykinin (95.5 Ci/mmole, PerkinElmer) in the absence or presence of the test compound in a buffer containing 50 mM Tris/HCl (pH 7.4), 0.2 g/L 1-10-phenanthroline and 0.1% BSA. All reagent and test compound additions to the assay plates were made using Biomek 3000 robotic workstations (Beckman Instruments, Fullerton, Calif.). Nonspecific binding was determined in the presence of 1 μM unlabeled bradykinin. Following the incubation, the assay was terminated by rapid filtration under vacuum through glass fiber filters (GF/C, PerkinElmer) presoaked with 0.3% polyethyleneimine and rinsed several times with an ice-cold 50 mM Tris-HCl buffer using a 96-sample cell harvester (Tomtec). The filters were air-dried and the radioactivity counted in a beta-scintillation counter (Topcount, PerkinElmer) using a scintillation cocktail (Microscint 20, PerkinElmer) (Sharif and Whiting, Neurochem. Int. 18: 89-96, 1991). Competitive binding inhibition curves were generated using a 7-point concentration—response of test compound in duplicate. Bradykinin peptide was also tested as an internal control in the assay. The data were analyzed using nonlinear, iterative curve-fitting to obtain the potency and intrinsic activities of the test agents as previously described (Sharif et al. J. Pharmacol. Exp. Ther. 286: 1094-1102, 1998; Sharif et al. Invest Ophthalmol. Vis. Sci. 39:2562-2571, 1998; Kelly et al. J. Pharmacol. Exp. Ther. 304: 238-245, 2003). Determined IC50 values were converted to Ki values using the standard Cheng-Prusoff equation.

The target of assay [2] is T2, BK receptors in human ciliary muscle cells (h-CM) (Homo sapiens, UniProt P30411).
T2 construct: h-CM cells expressing BK receptors were seeded; endogenous in cells; host or cells: human ciliary muscle (h-CM) cells
T2 sequence (P30411 1-391): T1 sequence (P30411 1-391)
Kind of assay: Functional assay measuring [Ca2+]i mobilization (FLIPR) in h-CM cells. Type of assay: cell-based. As to conditions: class symbols (in μM), read-out: CaM (EC50). As for the experimental part: On the day of the experiment, media was removed, cells were rinsed and 50 μL of serum-free media added. One vial of FLIPR Calcium Assay Kit dye was reconstituted in 50 mL of a FLIPR buffer consisting of Hank's Balanced Salt Solution (HBSS), 20 mM HEPES, and 2.5 mM probenecid, pH 7.4. Cells were loaded with the calcium-sensitive dye by addition of an equal volume (50 μL) to each well of the 96-well plate and incubated with dye for 1 h at 23° C. […] After this time, the test compound plate and cell plate were placed in a Fluorescence Imaging Plate Reader (FLIPR-Tetra®) instrument (Molecular Devices/MDSPharma, Sunnyvale, Calif.). At the beginning of an experimental run, a signal test was performed to check the basal fluorescence signal from the dye-loaded cells and the uniformity of the signal across the plate. […] An aliquot (25 μL) of the test compound was added to the existing 100 μL dye-loaded cells at a dispensing speed of 50 μL/sec. Intracellular calcium mobilization was measured by monitoring real-time changes in cellular fluorescence upon test compound addition. Fluorescence data were collected in real-time at 1.0 sec intervals for the first 60 seconds and at 6.0 second intervals for an additional 120 seconds. Baseline fluorescence readings were normalized across the plate and background-corrected from negative control wells. […] EC50 values were determined by 4-parameter nonlinear curve fitting of the concentration-response curve. Calibration of the instrument was performed using manufacturer's standard procedures.

In assay [3] the test system is primary human ciliary muscle cells (h-CM). The assay is described as follows: Total prostaglandin (PG) release from primary h-CM cells (EIA). Conditions: 1 hour at 37° C., class symbols (in μM). Type of assay: cell-based. As for the experimental part:
BK agonist compounds of Formula 1 were evaluated for the ability to induce prostaglandin (PG) release from primary human ciliary muscle cells (h-CM). Briefly, h-CM cells were grown to confluence in FNC-coated 24-well culture plates and serum-starved (0.8% FBS) for 24 hours prior to the experiment. Cells were stimulated with a 9-pt concentration-response (0.1 nM-10 μM) of bradykinin or BK agonist for 1 hour at 37° C. with subsequent sample recovery and processing for total PG measurement. Total PG measurement was determined using a total Prostaglandin Screening EIA kit (cat#514012) purchased from Cayman Chemical (Ann Arbor, Mich.). The assay was conducted according to the package insert from the manufacturer.

As for `COc1nc2c(OCc3c(Cl)ccc(N(C)C(=O)CNC(=O)CCc4cnc(NC(C)=O)nc4)c3Cl)cccc2n1Cc1ccccn1` [Compound 77], the Ki (in general, the dissociation constant of the complex between target and ligand, obtained from inhibition or displacement) in assay [1] was 229 nM. For the same compound, the EC50 (in general, the concentration giving half of the maximal effect) is under 0.1 µM in assay [2] and 0.1 to 1 µM in assay [3] (Homo sapiens, 1 h).

As to `CNC(=O)C1=NCC(CCC(=O)NCC(=O)N(C)c2ccc(Cl)c(COc3cccc4c3nc(OC)n4Cc3ccccn3)c2Cl)CN1` (stereo not drawn) [Compound 41, 5-(3-((2-((2,4-dichloro-3-(((2-methoxy-1-(pyridin-2-ylmethyl)-1H-benzo[d]imidazol-4-yl)oxy)methyl)phenyl)(methyl)amino)-2-oxoethyl)amino)-3-oxopropyl)-N-methyl-1,4,5,6-tetrahydropyrimidine-2-carboxamide], in assay [1], the Ki amounted to 300 nM. Besides, the EC50 was under 0.1 µM in assay [2] and 0.1 to 1 µM in assay [3] (Homo sapiens, 1 h).

Regarding `CNC(=O)N1CCN(CC(=O)NCC(=O)N(C)c2ccc(Cl)c(COc3cccc4c3nc(OC)n4Cc3ccccn3)c2Cl)CC1` [Compound 20], in assay [1], the Ki turned out to be 1090 ± 138 nM. For the same compound, the EC50 in assay [2] is 0.1 to 1 µM; in assay [3] (Homo sapiens, 1 h), over 1 µM.

Turning to `CNC(=O)N1CCN(CCCC(=O)NCC(=O)N(C)c2ccc(Cl)c(COc3cccc4c3nc(OC)n4Cc3ccccn3)c2Cl)CC1` [Compound 12], in assay [1], the inhibition constant (Ki) is 261 ± 195 nM. For the same compound, the EC50 was under 0.1 µM in assay [2] and over 1 µM in assay [3] (Homo sapiens, 1 h).

As for `COC(=O)c1ccc(CCC(=O)NCC(=O)N(C)c2ccc(Cl)c(COc3cccc4c3nc(OC)n4Cc3ccccn3)c2Cl)cc1` [Compound 37, methyl 4-(3-(2-((2,4-dichloro-3-((2-methoxy-1-(pyridin-2-ylmethyl)-1H-benzo[d]imidazol-4-yloxy)methyl)phenyl)(methyl)amino)-2-oxoethylamino)-3-oxopropyl)benzoate], the Ki in assay [1] was 55.2 nM. Moreover, the EC50 in assay [2] is under 0.1 µM; in assay [3] (Homo sapiens, 1 h), under 0.1 µM.

As for `COc1nc2c(OCc3c(Cl)ccc(N(C)C(=O)CNC(=O)CCc4ccc(NC(=O)CN(C)C)nc4)c3Cl)cccc2n1Cc1ccccn1` [Compound 73], in assay [1], the Ki was 184 nM. The EC50 was under 0.1 µM in assay [2] and 0.1 to 1 µM in assay [3] (Homo sapiens, 1 h).

Turning to `COc1nc2c(OCc3c(Cl)ccc(N(C)C(=O)CNC(=O)COc4cnc(NC(C)=O)nc4)c3Cl)cccc2n1Cc1ccccn1` [Compound 75], the Ki in assay [1] came to 544 nM. Also, the 50% effective concentration (EC50) in assay [2] is under 0.1 µM; in assay [3] (Homo sapiens, 1 h) it was 0.1 to 1 µM.

For the compound `CNC(=O)[C@@H]1CC[C@H](CCC(=O)NCC(=O)N(C)c2ccc(Cl)c(COc3cccc4c3nc(OC)n4Cc3ccccn3)c2Cl)CN1` [Compound 39, (2S,5R)-5-(3-((2-((2,4-dichloro-3-(((2-methoxy-1-(pyridin-2-ylmethyl)-1H-benzo[d]imidazol-4-yl)oxy)methyl)phenyl)(methyl)amino)-2-oxoethyl)amino)-3-oxopropyl)-N-methylpiperidine-2-carboxamide], the Ki in assay [1] amounted to 514 nM. Further, the EC50 fell in the range of 0.1 to 1 µM in assay [2] and 0.1 to 1 µM in assay [3] (Homo sapiens, 1 h).

Turning to `CNC(=O)c1ccc(OCC(=O)NCC(=O)N(C)c2ccc(Cl)c(COc3cccc4c3nc(OC)n4Cc3ccccn3)c2Cl)cc1` [Compound 68], the Ki in assay [1] is 59.5 nM. Moreover, the EC50 in assay [2] is under 0.1 µM; in assay [3] (Homo sapiens, 1 h), 0.1 to 1 µM.

Regarding `CNC(=O)c1ccc(CCC(=O)NCC(=O)N(C)c2ccc(Cl)c(COc3cccc4c(OCc5nccn5C)cc(C)nc34)c2Cl)cc1` [Compound 71], in assay [1], the Ki was 17 nM. Besides, the EC50 in assay [2] is under 0.1 µM; in assay [3] (Homo sapiens, 1 h), under 0.1 µM.

On to `COC(=O)Nc1ccc(CCC(=O)NCC(=O)N(C)c2ccc(Cl)c(COc3cccc4c3nc(OC)n4Cc3ccccn3)c2Cl)cn1` [Compound 2, methyl (5-(3-((2-((2,4-dichloro-3-(((2-methoxy-1-(pyridin-2-ylmethyl)-1H-benzo[d]imidazol-4-yl)oxy)methyl)phenyl)(methyl)amino)-2-oxoethyl)amino)-3-oxopropyl)pyridin-2-yl)carbamate], for which the Ki in assay [1] is 101 nM. Besides, the EC50 in assay [2] is under 0.1 µM; in assay [3] (Homo sapiens, 1 h), under 0.1 µM.

With `CNC(=O)N1CCOC(CC(=O)NCC(=O)N(C)c2ccc(Cl)c(COc3cccc4c3nc(OC)n4Cc3ccccn3)c2Cl)C1` (stereo not drawn) [Compound 79], the Ki in assay [1] worked out at 859 nM. The EC50 in assay [2] is 0.1 to 1 µM; in assay [3] (Homo sapiens, 1 h), over 1 µM.

Regarding `CNC(=O)c1ccc(CCC(=O)NCC(=O)N(C)c2ccc(C)c(COc3cccc4c3nc(OC)n4Cc3ccccn3)c2C)cc1` [Compound 56, 4-(3-((2-((3-(((2-methoxy-1-(pyridin-2-ylmethyl)-1H-benzo[d]imidazol-4-yl)oxy)methyl)-2,4-dimethylphenyl)(methyl)amino)-2-oxoethyl)amino)-3-oxopropyl)-N-methylbenzamide], the Ki in assay [1] came out at 42 nM. The EC50 in assay [2] was under 0.1 µM; in assay [3] (Homo sapiens, 1 h) it was under 0.1 µM.

In the case of `CNC(=O)C1CNCC(CC(=O)NCC(=O)N(C)c2ccc(Cl)c(COc3cccc4c3nc(OC)n4Cc3ccccn3)c2Cl)C1` (stereo not drawn) [Compound 81], in assay [1], the Ki was 108 nM. The EC50 was under 0.1 µM in assay [2] and over 1 µM in assay [3] (Homo sapiens, 1 h).

Consider `CNC(=O)c1ccc(CCC(=O)NCC(=O)N(C)c2ccc(Cl)c(COc3cccc4c3nc(OC)n4Cc3nccn3C)c2Cl)cc1` [Compound 82], for which the Ki in assay [1] was found to be 205 nM. Further, the EC50 in assay [2] is under 0.1 µM; in assay [3] (Homo sapiens, 1 h) it was over 1 µM.

For `CNCc1ccc(CCC(=O)NCC(=O)N(C)c2ccc(Cl)c(COc3cccc4c3nc(OC)n4Cc3ccccn3)c2Cl)cc1` [Compound 83], in assay [1], the Ki was determined as 329 nM. The EC50 is under 0.1 µM in assay [2] and over 1 µM in assay [3] (Homo sapiens, 1 h).

With `CNC(=O)c1ccc(CCC(=O)NCC(=O)N(C)c2ccc(Cl)c(COc3cccc4c3nc(OC)n4Cc3cn(C)cn3)c2Cl)cc1` [Compound 78, 4-(3-((2-((2,4-dichloro-3-(((2-methoxy-1-((1-methyl-1H-imidazol-4-yl)methyl)-1H-benzo[d]imidazol-4-yl)oxy)methyl)phenyl)(methyl)amino)-2-oxoethyl)amino)-3-oxopropyl)-N-methylbenzamide], the EC50 in assay [2] is under 0.1 µM; in assay [3] (Homo sapiens, 1 h), under 0.1 µM.

Regarding `CNC(=O)c1ccc(CCC(=O)NCC(=O)N(C)c2ccc(Cl)c(COc3cccc4c(OCc5cn(C)cn5)cc(C)nc34)c2Cl)cn1` [Compound 87], the EC50 was 0.1 to 1 µM in assay [2] and under 0.1 µM in assay [3].

As to `CNC(=O)c1ccc(CCC(=O)NCC(=O)N(C)c2ccc(Cl)c(COc3cccc4c3nc(OC)n4Cc3cn(C)cn3)c2Cl)cn1` [Compound 86], the EC50 was under 0.1 µM in assay [2] and under 0.1 µM in assay [3] (Homo sapiens, 1 h).
